The values below are quoted from earlier work in US8372797B2, “Treatment of erectile dysfunction by stem cell therapy” (Creative Medical Health, Inc., priority 2006, dated 2013).

The test system of one data set is diabetic rats. To be noted: intracavernous, gelatin microbeads.
For data set [1], the system named is hypercholesterolemic rabbits. To be noted: systemic administration.
Data set [2] concerns hypercholesterolemic rabbits. To be noted: two 2.5 microgram doses separated by a 3-week interval into corporal tissue.
The subject of data set [3] is model of rat diabetes associated ED. To be noted: exogenous administration.

For “bFGF: basic fibroblast growth factor, a known inducer of angiogenesis”, in the data set on diabetic rats, the erectile function entry was “protection of erectile function from diabetes mediated onset”. The “histological changes in the corpus cavernosum” value in data set [1] is “favorable histological changes”. The “corporal relaxation and ability to generate NO” value in data set [2] was “increase corporal relaxation in response to chemical stimuli”.
In the case of superoxide dismutase, the erectile function result in data set [3] is on record as “increase erectile function”.
